In ChEMBL document CHEMBL1126977, “Derivatives of 1-hydroxy-3-aminopyrrolidin-2-one (HA-966). Partial agonists at the glycine site of the NMDA receptor” (Bioorg Med Chem Lett, 1993):

Legend:
[1] = target: Glutamate receptor ionotropic, NMDA 1 (Rattus norvegicus, UniProt P35439); test: Inhibition of [3H]glycine binding to rat cortical membranes; assay type: cell membranes, Membrane
Rattus norvegicus [2] = species: Rattus norvegicus; test: In vitro inhibitory activity of glycine (0.3 uM) responses in isolated cultured cortical neurons; assay type: functional
[3] = Compound was evaluated for the pKa value; assay type: physicochemical
[4] = Compound was evaluated for the pKa value in experiment 2; assay type: physicochemical
[5] = Compound was evaluated for the pKa value in experiment 1; assay type: physicochemical
[6] = Compound was evaluated for the octanol-water partition coefficient […] at pH 7.4; assay type: physicochemical
Rattus norvegicus [7] = species: Rattus norvegicus; test: Tested in vitro for the inhibitory constant of glycine (0.3 uM) responses in isolated cultured cortical neurones; assay type: functional

Structure (SMILES) | IC50 [1] [µM] | Ki (Rattus norvegicus [2]) [µM] | Inhibition (Rattus norvegicus [2]) [%] | further results
CCC[C@@H]1CNC(=O)[C@@H]1N | > 100 | – | 39 | –
CC[C@@H]1CN(O)C(=O)[C@@H]1N | 15 | 15.4 | – | –
C[C@@H]1CN(OCc2ccccc2)C(=O)[C@@H]1N | – | – | – | pKa [3]: 6.1
C[C@H]1CN(O)C(=O)[C@@H]1N | > 100 | – | – | –
O=C1C2CC(CN2)N1O (stereo not given) | – | 5 | – | –
NC1CCN(OCc2ccccc2)C1=O (stereo not given) | – | – | – | pKa [4]: 6.6; pKa [5]: 6.2
C[C@@H]1C2NCCC1N(O)C2=O (stereo not given in full) | > 100 | > 80 | – | –
C[C@H]1C2NCCC1N(O)C2=O (stereo not given in full) | 48 | 8.2 | – | –
O=C1C2CC(CCN2)N1O (stereo not given) | 19 | 3.5 | – | –
O=C1C2NCCC2CN1O (stereo not given) | > 100 | – | 52 | –
N[C@H]1C(=O)N(O)C[C@H]1CO | > 100 | – | 63 | –
O=C1C2CC(CCN2)CN1O (stereo not given) | > 100 | – | 28 | –
O=C1C2CC(CN2)CN1O (stereo not given) | > 100 | – | 16 | –

The next lines start with results.

IC50 [1] [µM] | Ki (Rattus norvegicus [2]) [µM] | Structure (SMILES) | Inhibition (Rattus norvegicus [2]) [%] | further results
1.3 | 0.75 | N[C@H]1C(=O)N(O)C[C@H]1O | – | –
313 | – | N[C@H]1C(=O)N(O)C[C@@H]1O | 30 | –
86 | – | C[C@H]1CN(O)C(=O)[C@H]1N | – | –
> 100 | – | N[C@H]1C(=O)N(O)C[C@H]1CCO | 59 | –
> 100 | – | N[C@H]1C(=O)N(O)C[C@H]1c1ccccc1 | 0 | –
339 | – | NC1CCN(O)C1=O (single isomer, unassigned; (-)) | – | –
27.2 | 6.3 | N[C@@H]1CCN(O)C1=O (stereo in doubt; 1) | – | logD [6]: 3.52; pKa [3]: 8.1
2.9 | 1.3 | C[C@@H]1CN(O)C(=O)[C@@H]1N (stereo in doubt; 2) | – | logD [6]: 3.42; pKa [3]: 8
12.5 | 2.5 | N[C@@H]1CCN(O)C1=O (stereo in doubt; (+)-1) | – | –
1.4 | – | C[C@@H]1CN(O)C(=O)[C@@H]1N (stereo in doubt; (+)-2) | – | Ki (Rattus norvegicus [7]): 0.65 µM
